Test results as given in the NIST ThermoML archive (doi:10.1016/j.jct.2016.07.012).
Several values for one entry are separate records, joined by “and”; a condition that tells them apart may be missing. Equal entries are not always repeated. Numbers after ± are expanded uncertainties.

Experiment: molar heat capacity at constant pressure
Details: 101.33 kPa, Metastable crystal, Small (less than 1 g) adiabatic calorimetry

## CCCCn1cc[n+](C)c1.F[P-](F)(F)(F)(F)F [1-butyl-3-methylimidazolium hexafluorophosphate]
5.14 K
  molar heat capacity at constant pressure: 2.42 ± 0.07 J/K/mol
5.39 K
  molar heat capacity at constant pressure: 2.76 ± 0.08 J/K/mol and 1.64 ± 0.05 J/K/mol
5.67 K
  molar heat capacity at constant pressure: 1.92 ± 0.06 J/K/mol
5.74 K
  molar heat capacity at constant pressure: 3.28 ± 0.09 J/K/mol
6.01 K
  molar heat capacity at constant pressure: 2.31 ± 0.07 J/K/mol
6.1 K
  molar heat capacity at constant pressure: 3.85 ± 0.1 J/K/mol
6.43 K
  molar heat capacity at constant pressure: 2.83 ± 0.08 J/K/mol
6.54 K
  molar heat capacity at constant pressure: 4.59 ± 0.11 J/K/mol
6.93 K
  molar heat capacity at constant pressure: 3.51 ± 0.09 J/K/mol
7.06 K
  molar heat capacity at constant pressure: 5.54 ± 0.13 J/K/mol
7.43 K
  molar heat capacity at constant pressure: 4.3 ± 0.1 J/K/mol
7.59 K
  molar heat capacity at constant pressure: 6.57 ± 0.15 J/K/mol
7.94 K
  molar heat capacity at constant pressure: 5.16 ± 0.12 J/K/mol
8.12 K
  molar heat capacity at constant pressure: 7.67 ± 0.17 J/K/mol
8.46 K
  molar heat capacity at constant pressure: 6.12 ± 0.14 J/K/mol
8.66 K
  molar heat capacity at constant pressure: 8.84 ± 0.19 J/K/mol
8.98 K
  molar heat capacity at constant pressure: 7.15 ± 0.16 J/K/mol
9.2 K
  molar heat capacity at constant pressure: 10.06 ± 0.21 J/K/mol
9.51 K
  molar heat capacity at constant pressure: 8.25 ± 0.17 J/K/mol
9.75 K
  molar heat capacity at constant pressure: 11.33 ± 0.23 J/K/mol
10.05 K
  molar heat capacity at constant pressure: 9.41 ± 0.19 J/K/mol
10.36 K
  molar heat capacity at constant pressure: 12.83 ± 0.24 J/K/mol
10.66 K
  molar heat capacity at constant pressure: 10.82 ± 0.21 J/K/mol
11.05 K
  molar heat capacity at constant pressure: 14.53 ± 0.27 J/K/mol
11.34 K
  molar heat capacity at constant pressure: 12.43 ± 0.23 J/K/mol
11.75 K
  molar heat capacity at constant pressure: 16.3 ± 0.29 J/K/mol
12.02 K
  molar heat capacity at constant pressure: 14.11 ± 0.24 J/K/mol
12.45 K
  molar heat capacity at constant pressure: 18.11 ± 0.3 J/K/mol
12.71 K
  molar heat capacity at constant pressure: 15.86 ± 0.27 J/K/mol
13.16 K
  molar heat capacity at constant pressure: 19.96 ± 0.32 J/K/mol
13.41 K
  molar heat capacity at constant pressure: 17.66 ± 0.28 J/K/mol
13.87 K
  molar heat capacity at constant pressure: 21.84 ± 0.34 J/K/mol
14.11 K
  molar heat capacity at constant pressure: 19.5 ± 0.29 J/K/mol
14.59 K
  molar heat capacity at constant pressure: 23.69 ± 0.35 J/K/mol
14.82 K
  molar heat capacity at constant pressure: 21.33 ± 0.3 J/K/mol
15.31 K
  molar heat capacity at constant pressure: 25.67 ± 0.36 J/K/mol
15.64 K
  molar heat capacity at constant pressure: 23.71 ± 0.33 J/K/mol
16.14 K
  molar heat capacity at constant pressure: 28.07 ± 0.37 J/K/mol
16.58 K
  molar heat capacity at constant pressure: 26.38 ± 0.34 J/K/mol
17.09 K
  molar heat capacity at constant pressure: 30.62 ± 0.37 J/K/mol
17.53 K
  molar heat capacity at constant pressure: 28.96 ± 0.35 J/K/mol
18.04 K
  molar heat capacity at constant pressure: 33.1 ± 0.37 J/K/mol
18.47 K
  molar heat capacity at constant pressure: 31.53 ± 0.35 J/K/mol
18.99 K
  molar heat capacity at constant pressure: 35.56 ± 0.37 J/K/mol
19.42 K
  molar heat capacity at constant pressure: 34.1 ± 0.36 J/K/mol
19.94 K
  molar heat capacity at constant pressure: 37.99 ± 0.37 J/K/mol
20.38 K
  molar heat capacity at constant pressure: 36.68 ± 0.36 J/K/mol
21.2 K
  molar heat capacity at constant pressure: 41.25 ± 0.39 J/K/mol
21.63 K
  molar heat capacity at constant pressure: 40.09 ± 0.38 J/K/mol
22.78 K
  molar heat capacity at constant pressure: 45.26 ± 0.41 J/K/mol
23.2 K
  molar heat capacity at constant pressure: 44.28 ± 0.4 J/K/mol
24.36 K
  molar heat capacity at constant pressure: 49.25 ± 0.42 J/K/mol
24.78 K
  molar heat capacity at constant pressure: 48.5 ± 0.41 J/K/mol
25.94 K
  molar heat capacity at constant pressure: 53.1 ± 0.43 J/K/mol
26.36 K
  molar heat capacity at constant pressure: 52.53 ± 0.42 J/K/mol
27.42 K
  molar heat capacity at constant pressure: 56.44 ± 0.44 J/K/mol
27.74 K
  molar heat capacity at constant pressure: 55.76 ± 0.43 J/K/mol
28.99 K
  molar heat capacity at constant pressure: 60 ± 0.44 J/K/mol
29.16 K
  molar heat capacity at constant pressure: 59.25 ± 0.44 J/K/mol
30.59 K
  molar heat capacity at constant pressure: 63.64 ± 0.39 J/K/mol
30.76 K
  molar heat capacity at constant pressure: 63.06 ± 0.39 J/K/mol
32.36 K
  molar heat capacity at constant pressure: 67.48 ± 0.41 J/K/mol
32.52 K
  molar heat capacity at constant pressure: 67.01 ± 0.41 J/K/mol
34.28 K
  molar heat capacity at constant pressure: 71.38 ± 0.43 J/K/mol
34.44 K
  molar heat capacity at constant pressure: 71.11 ± 0.43 J/K/mol
36.21 K
  molar heat capacity at constant pressure: 75.09 ± 0.45 J/K/mol
36.36 K
  molar heat capacity at constant pressure: 74.97 ± 0.45 J/K/mol
38.14 K
  molar heat capacity at constant pressure: 78.66 ± 0.47 J/K/mol
38.29 K
  molar heat capacity at constant pressure: 78.65 ± 0.47 J/K/mol
40.07 K
  molar heat capacity at constant pressure: 82.09 ± 0.49 J/K/mol
40.21 K
  molar heat capacity at constant pressure: 82.2 ± 0.49 J/K/mol
42.09 K
  molar heat capacity at constant pressure: 85.6 ± 0.51 J/K/mol
42.23 K
  molar heat capacity at constant pressure: 85.83 ± 0.51 J/K/mol
44.21 K
  molar heat capacity at constant pressure: 89.2 ± 0.53 J/K/mol
44.36 K
  molar heat capacity at constant pressure: 89.57 ± 0.53 J/K/mol
46.33 K
  molar heat capacity at constant pressure: 92.75 ± 0.55 J/K/mol
46.49 K
  molar heat capacity at constant pressure: 93.18 ± 0.55 J/K/mol
48.45 K
  molar heat capacity at constant pressure: 96.18 ± 0.56 J/K/mol
48.62 K
  molar heat capacity at constant pressure: 96.7 ± 0.57 J/K/mol
50.58 K
  molar heat capacity at constant pressure: 99.47 ± 0.58 J/K/mol
50.75 K
  molar heat capacity at constant pressure: 100 ± 0.6 J/K/mol
52.71 K
  molar heat capacity at constant pressure: 102.6 ± 0.6 J/K/mol
52.88 K
  molar heat capacity at constant pressure: 103.3 ± 0.6 J/K/mol
54.84 K
  molar heat capacity at constant pressure: 105.6 ± 0.6 J/K/mol
55.01 K
  molar heat capacity at constant pressure: 106.3 ± 0.6 J/K/mol
56.97 K
  molar heat capacity at constant pressure: 108.5 ± 0.6 J/K/mol
57.15 K
  molar heat capacity at constant pressure: 109.3 ± 0.6 J/K/mol
59.11 K
  molar heat capacity at constant pressure: 111.3 ± 0.6 J/K/mol
59.29 K
  molar heat capacity at constant pressure: 112.2 ± 0.7 J/K/mol
61.24 K
  molar heat capacity at constant pressure: 114 ± 0.7 J/K/mol
61.43 K
  molar heat capacity at constant pressure: 115 ± 0.7 J/K/mol
63.37 K
  molar heat capacity at constant pressure: 116.6 ± 0.7 J/K/mol
63.57 K
  molar heat capacity at constant pressure: 117.8 ± 0.7 J/K/mol
65.51 K
  molar heat capacity at constant pressure: 119.2 ± 0.7 J/K/mol
65.71 K
  molar heat capacity at constant pressure: 120.5 ± 0.7 J/K/mol
67.65 K
  molar heat capacity at constant pressure: 121.8 ± 0.7 J/K/mol
67.86 K
  molar heat capacity at constant pressure: 123.3 ± 0.7 J/K/mol
69.79 K
  molar heat capacity at constant pressure: 124.4 ± 0.7 J/K/mol
70.01 K
  molar heat capacity at constant pressure: 126 ± 0.7 J/K/mol
72.04 K
  molar heat capacity at constant pressure: 127 ± 0.7 J/K/mol
72.26 K
  molar heat capacity at constant pressure: 128.8 ± 0.7 J/K/mol
74.39 K
  molar heat capacity at constant pressure: 129.8 ± 0.7 J/K/mol
74.61 K
  molar heat capacity at constant pressure: 131.7 ± 0.8 J/K/mol
76.74 K
  molar heat capacity at constant pressure: 132.5 ± 0.8 J/K/mol
76.97 K
  molar heat capacity at constant pressure: 134.6 ± 0.8 J/K/mol
78.34 K
  molar heat capacity at constant pressure: 134.5 ± 0.8 J/K/mol
78.72 K
  molar heat capacity at constant pressure: 137.3 ± 0.8 J/K/mol
79.09 K
  molar heat capacity at constant pressure: 135.1 ± 0.8 J/K/mol
79.34 K
  molar heat capacity at constant pressure: 137.4 ± 0.8 J/K/mol
80.13 K
  molar heat capacity at constant pressure: 136.3 ± 0.8 J/K/mol
80.5 K
  molar heat capacity at constant pressure: 139.2 ± 0.8 J/K/mol
81.45 K
  molar heat capacity at constant pressure: 137.7 ± 0.8 J/K/mol
81.7 K
  molar heat capacity at constant pressure: 140.2 ± 0.8 J/K/mol
81.8 K
  molar heat capacity at constant pressure: 138.1 ± 0.8 J/K/mol
82.15 K
  molar heat capacity at constant pressure: 141.2 ± 0.8 J/K/mol
83.48 K
  molar heat capacity at constant pressure: 139.8 ± 0.8 J/K/mol
83.81 K
  molar heat capacity at constant pressure: 140.2 ± 0.8 J/K/mol
83.82 K
  molar heat capacity at constant pressure: 143 ± 0.8 J/K/mol
84.07 K
  molar heat capacity at constant pressure: 142.9 ± 0.8 J/K/mol
85.17 K
  molar heat capacity at constant pressure: 141.6 ± 0.8 J/K/mol
85.49 K
  molar heat capacity at constant pressure: 145 ± 0.8 J/K/mol
86.86 K
  molar heat capacity at constant pressure: 143.5 ± 0.8 J/K/mol
87.17 K
  molar heat capacity at constant pressure: 146.9 ± 0.8 J/K/mol
88.56 K
  molar heat capacity at constant pressure: 145.3 ± 0.8 J/K/mol
88.85 K
  molar heat capacity at constant pressure: 148.6 ± 0.8 J/K/mol
90.27 K
  molar heat capacity at constant pressure: 147.2 ± 0.8 J/K/mol
90.55 K
  molar heat capacity at constant pressure: 150.8 ± 0.8 J/K/mol
91.99 K
  molar heat capacity at constant pressure: 149 ± 0.8 J/K/mol
92.25 K
  molar heat capacity at constant pressure: 152.7 ± 0.8 J/K/mol
93.71 K
  molar heat capacity at constant pressure: 150.9 ± 0.8 J/K/mol
93.96 K
  molar heat capacity at constant pressure: 154.7 ± 0.8 J/K/mol
95.45 K
  molar heat capacity at constant pressure: 152.7 ± 0.8 J/K/mol
95.67 K
  molar heat capacity at constant pressure: 156.7 ± 0.9 J/K/mol
97.19 K
  molar heat capacity at constant pressure: 154.7 ± 0.8 J/K/mol
97.39 K
  molar heat capacity at constant pressure: 159.1 ± 0.9 J/K/mol
98.94 K
  molar heat capacity at constant pressure: 156.5 ± 0.9 J/K/mol
99.12 K
  molar heat capacity at constant pressure: 160.7 ± 0.9 J/K/mol
100.69 K
  molar heat capacity at constant pressure: 158.4 ± 0.9 J/K/mol
100.85 K
  molar heat capacity at constant pressure: 162.3 ± 0.9 J/K/mol
102.5 K
  molar heat capacity at constant pressure: 160.3 ± 0.9 J/K/mol
102.65 K
  molar heat capacity at constant pressure: 164.4 ± 0.9 J/K/mol
104.38 K
  molar heat capacity at constant pressure: 162.4 ± 0.9 J/K/mol
104.51 K
  molar heat capacity at constant pressure: 166.4 ± 0.9 J/K/mol
106.27 K
  molar heat capacity at constant pressure: 164.4 ± 0.9 J/K/mol
106.38 K
  molar heat capacity at constant pressure: 168.5 ± 0.9 J/K/mol
108.17 K
  molar heat capacity at constant pressure: 166.5 ± 0.9 J/K/mol
108.26 K
  molar heat capacity at constant pressure: 170.5 ± 0.9 J/K/mol
110.06 K
  molar heat capacity at constant pressure: 168.6 ± 0.9 J/K/mol
110.13 K
  molar heat capacity at constant pressure: 172.5 ± 0.9 J/K/mol
111.96 K
  molar heat capacity at constant pressure: 170.7 ± 0.9 J/K/mol
112.01 K
  molar heat capacity at constant pressure: 174.6 ± 0.9 J/K/mol
113.86 K
  molar heat capacity at constant pressure: 172.8 ± 0.9 J/K/mol
113.9 K
  molar heat capacity at constant pressure: 176.6 ± 1 J/K/mol
115.77 K
  molar heat capacity at constant pressure: 174.9 ± 0.9 J/K/mol
115.78 K
  molar heat capacity at constant pressure: 178.7 ± 1 J/K/mol
117.67 K
  molar heat capacity at constant pressure: 180.7 ± 1 J/K/mol
117.68 K
  molar heat capacity at constant pressure: 177.1 ± 1 J/K/mol
119.56 K
  molar heat capacity at constant pressure: 182.8 ± 1 J/K/mol
119.59 K
  molar heat capacity at constant pressure: 179.2 ± 1 J/K/mol
121.46 K
  molar heat capacity at constant pressure: 184.9 ± 1 J/K/mol
121.5 K
  molar heat capacity at constant pressure: 181.4 ± 1 J/K/mol
123.35 K
  molar heat capacity at constant pressure: 186.9 ± 1 J/K/mol
123.41 K
  molar heat capacity at constant pressure: 183.7 ± 1 J/K/mol
125.25 K
  molar heat capacity at constant pressure: 189.1 ± 1 J/K/mol
